In US20250170130A1, “MODULATORS OF MYC FAMILY PROTO-ONCOGENE PROTEIN” (Nalo Therapeutics, priority 2022, published 2025):
Like-named read-outs stand apart in the source and are kept apart here.

Tests used:
[1] = biological target: T1, MycC (Homo sapiens, UniProt P01106); test: Degradation of MycC protein in L363 cells, JESS/Western blot of lysates; format: cell-based; details: L-363, 24 h; for Dmax at 0.5 µM: read-out: % Degradation of MycC (L-363) 24 h, 0.5 μM; for Dmax at 1 µM: read-out: % Degradation of MycC (L-363) 24 h, 1 μM; for Dmax at 3 µM: read-out: % Degradation of MycC (L-363) 24 h, 3 μM; for Dmax at 6 µM: read-out: % Degradation of MycC (L-363) 24 h, 6 μM
T1 construct: endogenous in cells; host or cells: L363
Outline: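 L363 suspension cells were seeded at 1E6 cells per well and exposed to compound (stock 10 mM in DMSO) for 24 hrs. Cells were collected, spun down, rinsed with PBS, lysed in RIPA buffer cocktail on ice, clarified and kept at −80 degrees. Lysate protein was quantified by BCA, and c-myc was measured on JESS by chemiluminescence with tubulin and GAPDH loading controls in the NIR channel.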

[2] = biological target: T2, MycN (Homo sapiens, UniProt P04198); test: Degradation of MycN protein in SK-N-BE(2) cells, JESS/Western blot of lysates; format: cell-based; details: SKNBE2, 24 h; for Dmax at 0.5 µM: read-out: % Degradation of MycN (SKNBE2) 24 h, 0.5 μM; for Dmax at 1 µM: read-out: % Degradation of MycN (SKNBE2) 24 h, 1 μM; for Dmax at 3 µM: read-out: % Degradation of MycN (SKNBE2) 24 h, 3 μM; for Dmax at 6 µM: read-out: % Degradation of MycN (SKNBE2) 24 h, 6 μM
T2 construct: endogenous in cells; host or cells: SK-N-BE(2)
T2 sequence (P04198 1-464): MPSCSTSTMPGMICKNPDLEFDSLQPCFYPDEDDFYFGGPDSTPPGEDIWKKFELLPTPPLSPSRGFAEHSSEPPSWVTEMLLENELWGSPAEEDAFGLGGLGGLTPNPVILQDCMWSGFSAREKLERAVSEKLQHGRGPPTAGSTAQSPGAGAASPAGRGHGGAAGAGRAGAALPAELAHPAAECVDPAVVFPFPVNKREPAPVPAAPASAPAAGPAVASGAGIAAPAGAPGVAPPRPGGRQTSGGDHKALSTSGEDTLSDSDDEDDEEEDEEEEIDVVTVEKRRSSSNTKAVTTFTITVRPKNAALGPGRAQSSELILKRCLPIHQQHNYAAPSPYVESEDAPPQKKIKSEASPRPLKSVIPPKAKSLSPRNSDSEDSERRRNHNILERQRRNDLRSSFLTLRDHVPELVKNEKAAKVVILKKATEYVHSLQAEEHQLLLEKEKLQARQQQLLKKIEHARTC
Outline: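 SK-N-BE(2) adherent cells (5E5 per well of a 6 well dish) were grown 24 hrs, then exposed to compounds diluted 1 in 20 in media, with DMSO controls, for 24 hrs. Cells were scraped, pelleted, PBS washed and lysed in RIPA buffer cocktail; after BCA protein quantitation, n-myc was detected by chemiluminescence on JESS/Western blot with tubulin and GAPDH loading controls read in the near infra red channel.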

T1 sequence (P01106 whole entry): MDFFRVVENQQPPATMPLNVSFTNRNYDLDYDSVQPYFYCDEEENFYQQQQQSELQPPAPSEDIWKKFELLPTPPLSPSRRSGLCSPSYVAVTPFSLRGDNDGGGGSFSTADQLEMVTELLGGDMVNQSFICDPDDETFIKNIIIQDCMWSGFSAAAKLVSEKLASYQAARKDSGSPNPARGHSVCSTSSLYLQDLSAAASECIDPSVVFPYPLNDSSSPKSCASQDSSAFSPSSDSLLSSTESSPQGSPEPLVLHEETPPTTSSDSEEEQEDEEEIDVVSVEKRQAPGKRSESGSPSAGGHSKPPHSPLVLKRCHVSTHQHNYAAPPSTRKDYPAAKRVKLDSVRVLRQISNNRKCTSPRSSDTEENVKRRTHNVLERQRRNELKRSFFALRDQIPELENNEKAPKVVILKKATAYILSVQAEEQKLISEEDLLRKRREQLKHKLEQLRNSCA

| Dmax at 0.5 µM ([1]; L-363 cells, 24 h, 0.5 μM) | Dmax at 1 µM ([1]; L-363 cells, 24 h, 1 μM) | Dmax at 3 µM ([1]; L-363 cells, 24 h, 3 μM) | Dmax at 6 µM ([1]; L-363 cells, 24 h, 6 μM) | Dmax at 0.5 µM ([2]; SKNBE2 cells, 24 h, 0.5 μM) | Dmax at 1 µM ([2]; SKNBE2 cells, 24 h, 1 μM) | Dmax at 3 µM ([2]; SKNBE2 cells, 24 h, 3 μM) | Dmax at 6 µM ([2]; SKNBE2 cells, 24 h, 6 μM) | SMILES | Dmax at 1 µM [1] | Dmax at 3 µM [1] | Dmax at 6 µM [1] | Dmax at 0.5 µM [2] | Dmax at 1 µM [2] | Dmax at 3 µM [2] | Dmax at 6 µM [2] | Dmax at 0.5 µM [1] |
| --- | --- | --- | --- | --- | --- | --- | --- | --- | --- | --- | --- | --- | --- | --- | --- | --- |
| < 20% | 20 to 49% | < 20% | 80 to 100% | 20 to 49% | < 20% | 80 to 100% | 80 to 100% | CNC[C@@H]1CCN(c2nccc(Nc3cc(C4CCCC4)[nH]n3)n2)C1 [Compound 36, N-(5-cyclopentyl-1H-pyrazol-3-yl)-2-[(3S)-3-(methylaminomethyl)pyrrolidin-1-yl]pyrimidin-4-amine] |  |  |  |  |  |  |  |  |
| < 20% | < 20% | 50 to 79% | 80 to 100% |  |  | 20 to 49% | 50 to 79% | CNCC1CCN(c2nccc(Nc3cc(C4CC4)[nH]n3)n2)CC1 [Compound 12, N-(5-Cyclopropyl-1H-pyrazol-3-yl)-2-(4-((methylamino)methyl)piperidin-1-yl)pyrimidin-4-amine] |  |  |  |  |  |  |  |  |
|  | < 20% |  | 80 to 100% | < 20% | < 20% | 20 to 49% | 80 to 100% | CNC[C@H]1CN(c2nccc(Nc3cc(C4CCCC4)[nH]n3)n2)C[C@H]1F [Compound 181] |  |  |  |  |  |  |  |  |
|  | 20 to 49% |  |  |  | < 20% | 20 to 49% | 20 to 49% | c1cc(Nc2cc(C3CC3)[nH]n2)nc(N2CCC(C3CNC3)C2)n1 (racemic) [Compound 39, (±)-2-[3-(azetidin-3-yl)pyrrolidin-1-yl]-N-(5-cyclopropyl-1H-pyrazol-3-yl)pyrimidin-4-amine] |  |  |  |  |  |  |  |  |
|  | 20 to 49% | < 20% | 20 to 49% | < 20% | < 20% | < 20% | < 20% | CN(C)CCCN(C)c1nccc(Nc2cc(C3CC3)[nH]n2)n1 [Compound 48, N^4-(5-cyclopropyl-1H-pyrazol-3-yl)-N^2-[3-(dimethylamino)propyl]-N^2-methyl-pyrimidine-2,4-diamine] |  |  |  |  |  |  |  |  |
| 20 to 49% | 80 to 100% | 80 to 100% | 80 to 100% | 20 to 49% | 50 to 79% | 80 to 100% | 80 to 100% | FC(F)(F)CNCC12CC(C1)N(c1nccc(Nc3cc(C4CCCC4)[nH]n3)n1)C2 [Compound 71, N-(5-Cyclopentyl-1H-pyrazol-3-yl)-2-[4-[(2,2,2-trifluoroethylamino)methyl]-2-azabicyclo[2.1.1]hexan-2-yl]pyrimidin-4-amine] |  |  |  |  |  |  |  |  |
| < 20% | < 20% |  | 20 to 49% |  | 20 to 49% | 80 to 100% | 80 to 100% | NCC1CCN(c2nccc(Nc3cc(C4CC4)[nH]n3)n2)CC1 [Compound 10, 2-(4-(aminomethyl)piperidin-1-yl)-N-(5-cyclopropyl-1H-pyrazol-3-yl)pyrimidin-4-amine] |  |  |  |  |  |  |  |  |
| < 20% |  | 80 to 100% | 80 to 100% | 20 to 49% | 20 to 49% | 80 to 100% | 80 to 100% | CC1(NCC23CC(C2)N(c2nccc(Nc4cc(C5CCCC5)[nH]n4)n2)C3)COC1 [Compound 69, N-(5-Cyclopentyl-1H-pyrazol-3-yl)-2-[4-[[(3-methyloxetan-3-yl)amino]methyl]-2-azabicyclo[2.1.1]hexan-2-yl]pyrimidin-4-amine] |  |  |  |  |  |  |  |  |

Second part, the compound before the results:

| SMILES | Dmax at 0.5 µM ([1]; L-363 cells, 24 h, 0.5 μM) | Dmax at 1 µM ([1]; L-363 cells, 24 h, 1 μM) | Dmax at 3 µM ([1]; L-363 cells, 24 h, 3 μM) | Dmax at 6 µM ([1]; L-363 cells, 24 h, 6 μM) | Dmax at 0.5 µM ([2]; SKNBE2 cells, 24 h, 0.5 μM) | Dmax at 1 µM ([2]; SKNBE2 cells, 24 h, 1 μM) | Dmax at 3 µM ([2]; SKNBE2 cells, 24 h, 3 μM) | Dmax at 6 µM ([2]; SKNBE2 cells, 24 h, 6 μM) | Dmax at 1 µM [1] | Dmax at 3 µM [1] | Dmax at 6 µM [1] | Dmax at 0.5 µM [2] | Dmax at 1 µM [2] | Dmax at 3 µM [2] | Dmax at 6 µM [2] | Dmax at 0.5 µM [1] |
| --- | --- | --- | --- | --- | --- | --- | --- | --- | --- | --- | --- | --- | --- | --- | --- | --- |
| CN1C[C@@H]2CN(c3nccc(Nc4cc(C5CC5)[nH]n4)n3)C[C@@H]2C1 [Compound 15, 2-[rac-(3aR,6aS)-2-methyl-1,3,3a,4,6,6a-hexahydropyrrolo[3,4-c]pyrrol-5-yl]-N-(5-cyclopropyl-1H-pyrazol-3-yl)pyrimidin-4-amine] | < 20% | 20 to 49% | 20 to 49% | 20 to 49% | 20 to 49% | 20 to 49% | 50 to 79% | 80 to 100% |  |  |  |  |  |  |  |  |
| CC(C)NCC12CC(C1)N(c1nccc(Nc3cc(C4CCCC4)[nH]n3)n1)C2 [Compound 78, N-(5-Cyclopentyl-1H-pyrazol-3-yl)-2-[4-[(isopropylamino)methyl]-2-azabicyclo[2.1.1]hexan-2-yl]pyrimidin-4-amine] |  |  |  |  |  |  |  |  | < 20% | 50 to 79% | 80 to 100% | < 20% | 20 to 49% | 80 to 100% | 80 to 100% |  |
| CNC1CC2(C1)CN(c1nccc(Nc3cc(C4CC4)[nH]n3)n1)C2 [Compound 1, 2-(4-((5-cyclopropyl-1H-pyrazol-3-yl)amino)pyrimidin-2-yl)-N-methyl-2-azaspiro[3.3]heptan-6-amine] |  |  |  | 20 to 49% |  |  | < 20% | 50 to 79% |  |  |  |  |  |  |  |  |
| O=C1c2ccccc2C(=O)N1CC12CC(CN(c3nccc(Nc4cc(C5CCCC5)[nH]n4)n3)C1)C2 [Compound 127, 2-[[3-[4-[(5-Cyclopentyl-1H-pyrazol-3-yl)amino]pyrimidin-2-yl]-3-azabicyclo[3.1.1]heptan-1-yl]methyl]isoindoline-1,3-dione] |  |  |  |  |  |  |  |  | 80 to 100% | 80 to 100% | 80 to 100% | 50 to 79% | 80 to 100% | 80 to 100% | 80 to 100% | < 20% |
| CN1CCC2(C1)CN(c1nccc(Nc3cc(C4CC4)[nH]n3)n1)C2 [Compound 26, N-(5-cyclopropyl-1H-pyrazol-3-yl)-2-(7-methyl-2,7-diazaspiro[3.4]octan-2-yl)pyrimidin-4-amine] | 20 to 49% | 20 to 49% | < 20% |  | 20 to 49% | 20 to 49% | 20 to 49% | 50 to 79% |  |  |  |  |  |  |  |  |
| CN1CC2(CCN(c3nccc(Nc4cc(C5CC5)[nH]n4)n3)C2)C1 [Compound 3, N-(5-cyclopropyl-1H-pyrazol-3-yl)-2-(2-methyl-2,6-diazaspiro[3.4]octan-6-yl)pyrimidin-4-amine] | < 20% | 20 to 49% |  | 80 to 100% | < 20% | < 20% | < 20% | 50 to 79% |  |  |  |  |  |  |  |  |
